The target in experiment [1] is T1, DNA topoisomerase 1 (Homo sapiens) (UniProt P11387).
T1 sequence (whole entry): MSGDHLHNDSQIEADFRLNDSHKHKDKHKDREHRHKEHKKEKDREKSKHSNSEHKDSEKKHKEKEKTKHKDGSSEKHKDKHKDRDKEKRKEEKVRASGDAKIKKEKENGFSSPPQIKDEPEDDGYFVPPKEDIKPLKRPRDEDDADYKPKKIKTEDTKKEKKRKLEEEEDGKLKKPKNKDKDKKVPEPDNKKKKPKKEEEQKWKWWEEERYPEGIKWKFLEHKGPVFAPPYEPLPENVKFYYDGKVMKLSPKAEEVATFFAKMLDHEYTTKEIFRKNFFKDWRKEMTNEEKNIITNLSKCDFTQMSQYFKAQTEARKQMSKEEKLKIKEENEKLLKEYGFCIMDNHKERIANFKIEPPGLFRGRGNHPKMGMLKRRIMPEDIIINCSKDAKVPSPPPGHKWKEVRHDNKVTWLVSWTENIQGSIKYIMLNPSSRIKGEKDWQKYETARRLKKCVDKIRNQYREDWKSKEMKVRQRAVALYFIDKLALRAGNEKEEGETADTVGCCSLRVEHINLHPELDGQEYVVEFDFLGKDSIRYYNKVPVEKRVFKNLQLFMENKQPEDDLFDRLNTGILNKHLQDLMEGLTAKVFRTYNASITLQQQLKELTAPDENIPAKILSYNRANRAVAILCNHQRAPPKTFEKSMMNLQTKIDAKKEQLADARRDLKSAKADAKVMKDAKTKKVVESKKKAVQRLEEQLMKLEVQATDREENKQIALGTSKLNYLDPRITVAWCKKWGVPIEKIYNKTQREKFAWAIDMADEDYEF
The experiment in a line: Inhibition of recombinant human topoisomerase 1 expressed in yeast TopI null strain RS190 at 100 uM using negatively supercoiled pUC18 plasmid DNA as substrate incubated for 3 min by agarose gel electrophoresis method.

The next experiment deals with SK-OV-3. The experiment in a line: Antiproliferative activity against human SK-OV-3 cells assessed as cell growth inhibition measured after 48 hrs by CCK-8 assay. The class given is functional, cell-based. The following applies: SK-OV-3, 48 h. (Tetrazolium assays rely on reduction of a dye to a coloured formazan, in cell work by metabolically active cells.)
For another experiment, the system named is MRC5. The experiment in a line: Antiproliferative activity against human MRC5 cells assessed as cell growth inhibition measured after 48 hrs by CCK-8 assay. Type of experiment: cell-based. The following applies: MRC5, 48 h.
The target of experiment [2] is T1, DNA topoisomerase 1 (Homo sapiens). The experiment in a line: Inhibition of recombinant human topoisomerase 1 expressed in yeast TopI null strain RS190 at 100 uM using negatively supercoiled pUC18 plasmid DNA as substrate incubated for 1 min by agarose gel electrophoresis method.
Another experiment deals with A549. The experiment in a line: Antiproliferative activity against human A549 cells assessed as cell growth inhibition measured after 48 hrs by CCK-8 assay. The class given is functional, cell-based. The following applies: A549, 48 h.
Experiment [3] addresses T1, DNA topoisomerase 1 (Homo sapiens). The experiment in a line: Inhibition of recombinant human topoisomerase 1 expressed in yeast TopI null strain RS190 at 100 uM using negatively supercoiled pUC18 plasmid DNA as substrate incubated for 15 secs by agarose gel electrophoresis method. The following applies: time 15.0 sec.
Experiment [4] shares this target. The experiment in a line: Poison activity at recombinant human topoisomerase 1 expressed in yeast TopI null strain RS190 assessed as increase in nicked plasmid DNA at 100 uM using supercoiled pUC18 plasmid DNA as substrate incubated for 15 to 180 secs by Ethidium bromide staining based agarose gel electrophoresis analysis. Conditions: time 15-180 sec.

Structures are written as SMILES. Active and inactive are the calls of the source. The calls are words filed in the database; no cut-off is given here.

Usually inhibition stands for the change of the read-out against control, counted positive when it falls. Broadly, the IC50 is the concentration that gives 50% inhibition.

`Cc1ccc2c(c1)-c1nc3ncccc3c(-c3ccccc3)c1CO2`: the values for the inhibition in experiment [1], in experiment [2] and in experiment [3] were 1%, 1% and 26%, respectively. The IC50 in the experiment with SK-OV-3, in the experiment with MRC5 and with A549 was over 50 µM in each case.
In the case of `O=C1Oc2ccc(F)cc2[C@H]2Nc3ncccc3[C@@H](c3ccccc3)[C@H]12`, the results for the inhibition in experiment [1], in experiment [2] and in experiment [3] were 4%, 5% and 5%, respectively. The IC50 in the experiment on SK-OV-3, in the experiment on MRC5 and in the experiment with A549 was over 50 µM each time.
As for `O=C1Oc2ccccc2[C@H]2Nc3ncc(Br)cc3[C@@H](c3ccccc3)[C@H]12`, the figures for the inhibition in experiment [1], in experiment [2] and in experiment [3] were 1%, 10% and 11%, respectively. For the same compound, the half-inhibitory concentration (IC50) in the experiment with SK-OV-3, with MRC5 and in the experiment on A549 was over 50 µM each time.
As for `O=c1oc2ccccc2c2nc3ncccc3c(-c3ccccc3)c12`, the inhibition in experiment [1] was found to be 51%; in experiment [2], 75%; in experiment [3] it was 75%. For the same compound, the IC50 in the experiment with SK-OV-3 was 1.78 µM; with MRC5, over 50 µM; in the experiment with A549 it was 1.23 µM.
Consider `Fc1ccc2c(c1)[C@H]1Nc3ncccc3[C@@H](c3ccccc3)[C@@H]1CO2`, for which the inhibition in experiment [1] is 1%; in experiment [2] it was 14%; in experiment [3], 14%. Besides, the IC50 in the experiment on SK-OV-3, with MRC5 and in the experiment on A549 was over 50 µM throughout.
Take `c1ccc(-c2c3c(nc4ncccc24)-c2ccccc2OC3)cc1`: the inhibition in experiment [1] turned out to be 2%; in experiment [2] it was 9%; in experiment [3] it was 10%. The IC50 in the experiment with SK-OV-3, in the experiment with MRC5 and in the experiment with A549 was over 50 µM throughout.
With `Cc1ccc(S(=O)(=O)N2Cc3c(nc4ncccc4c3-c3ccccc3)-c3ccccc32)cc1`, the inhibition stood at 92% in experiment [1], 93% in experiment [2] and 95% in experiment [3]. Besides, the IC50 with SK-OV-3 is 16.9 µM; with MRC5, over 50 µM; in the experiment with A549, 17.9 µM.
As to `Fc1ccc2c(c1)-c1nc3ncccc3c(-c3ccccc3)c1CO2`, the figures for the inhibition in experiment [1], in experiment [2] and in experiment [3] were 11%, 40% and 41%, respectively. Further, the results for the half-inhibitory concentration (IC50) in the experiment on SK-OV-3, in the experiment on MRC5 and in the experiment on A549 were 38.1 µM, over 50 µM and 31.2 µM, respectively.
As to `O=c1oc2ccc(F)cc2c2nc3ncccc3c(-c3ccccc3)c12`, the inhibition in experiment [1] turned out to be 4%; in experiment [2], 4%; in experiment [3], 5%. Further, the concentration for half-maximal inhibition (IC50) with SK-OV-3, in the experiment on MRC5 and in the experiment with A549 was over 50 µM in each case.
`CC[C@@]1(O)C(=O)OCc2c1cc1n(c2=O)Cc2cc3ccccc3nc2-1`: the outcome in experiment [4] was Active.
For `Cc1ccc(S(=O)(=O)N2C[C@H]3[C@H](c4ccccc4)c4cccnc4N[C@@H]3c3ccccc32)cc1`, in experiment [4], the result was Active. Moreover, the inhibition was determined as 85% in experiment [1], 89% in experiment [2] and 91% in experiment [3]. Also, the IC50 in the experiment on SK-OV-3 is 8.21 µM; in the experiment with MRC5 it was over 50 µM; in the experiment on A549 it was 6.3 µM.
`Cc1ccc2c(c1)[C@H]1Nc3ncccc3[C@@H](c3ccccc3)[C@@H]1CO2`: the inhibition was determined as 1% in experiment [1], 15% in experiment [2] and 21% in experiment [3]. In addition, the IC50 in the experiment on SK-OV-3, with MRC5 and in the experiment on A549 was over 50 µM each time.
As for `O=c1oc2ccccc2c2nc3ncc(Br)cc3c(-c3ccccc3)c12`, the values for the inhibition in experiment [1], in experiment [2] and in experiment [3] were 5%, 15% and 21%, respectively. The IC50 with SK-OV-3, with MRC5 and in the experiment on A549 was over 50 µM throughout.
Regarding `Cc1ccc(S(=O)(=O)N2Cc3c(nc4ncc(Br)cc4c3-c3ccccc3)-c3ccccc32)cc1`, the outcome in experiment [4] was Active. Further, the inhibition in experiment [1] stood at 95%; in experiment [2] it was 98%; in experiment [3], 98%. Further, the 50% inhibitory concentration (IC50) with SK-OV-3 was 12.2 µM; in the experiment with MRC5, over 50 µM; in the experiment on A549, 10.5 µM.
Consider `COc1ccc(-c2c3c(nc4ncccc24)-c2ccccc2OC3)cc1`, for which the results for the inhibition in experiment [1], in experiment [2] and in experiment [3] were 6%, 11% and 11%, respectively. The half-inhibitory concentration (IC50) in the experiment with SK-OV-3, in the experiment on MRC5 and with A549 was over 50 µM throughout.
`c1ccc([C@@H]2c3cccnc3N[C@@H]3c4ccccc4OC[C@@H]23)cc1`: the results for the inhibition in experiment [1], in experiment [2] and in experiment [3] were 5%, 60% and 61%, respectively. Further, the IC50 in the experiment with SK-OV-3 is 12.2 µM; in the experiment with MRC5, over 50 µM; in the experiment with A549, 11.7 µM.
